Test results taken from patent US20050037436A1, “Test systems and the use thereof for identifying and characterizing compounds” (priority 2000, published 2005).
Entries after “also recorded” stand apart in the source; their conditions may differ. Read-outs that look alike come from different tables or passages of the source.

Legend:
HC110-R [1] = format: cell-based, Haemonchus contortus; settings: for Ca2+ response to substance alone: 400 ng/ml where stated, up to 50 min or 90 min preincubation
Experimental: The intracellular free Ca^2+ concentration [Ca^2+]i was measured in COS-7 and HEK293 cells transiently transfected with the HC110-R-EGFP or β2-AR-EGFP construct using the calcium imaging method (see also FIG. 11). In each case 2×10^5 COS-7 and HEK293 cells were applied to a 42 mm cover glass coated with 1% gelatine in 55 mm tissue culture dishes with 5 ml of DMEM medium (with 10% FCS and pen/strep). The transfection took place with the aid of the non-liposomal transfection reagent FuGENE 6 (Roche Molecular Biochemicals, Mannheim). […] Constructs of the HC110-R full-length clone with a GFP tag fused in the correct reading frame, and the complete cDNA of the β2-adrenergic receptor which had likewise been provided with a GFP tag at the 3′ end, were transfected.
After the incubation, the cells loaded with Fura-2/AM were examined under an inverted microscope (Zeiss, Axiovert, Germany) and, in parallel with this, in a digital imaging fluorescence microscope (PTI) and differentiated into transfected and untransfected cells at a wavelength of 440 and 490 nm respectively. On average, 5-7 transfected and non transfected cells were selected by fixing an ROI (region of interest). The extinction was measured at 340 nm (calcium-bound Fura-2/AM) and 380 nm (free Fura-2/AM), and the emission was measured at 510 nm. Evaluation took place using the Image Master 1.x software by forming the quotient of 340:510 nm, 380:510 nm and the ratio of 340/380:510 nm (background corrected images) as a function of the agent added.
Agents were always added 6 min after starting the measurement by removing an appropriate volume of Na^+ HBS buffer and pipetting the agent directly into the sample vessel for a further 30 to 50 min. The total volume in the sample vessel was constant at 1.5 ml throughout the experiment. […] Addition of CdCl2 and nifedipine took place immediately at the start of the experiment and before addition of α-LTX, and EGTA was added both at the start of the experiment and 4 min after the addition of α-LTX. Dissolved α-LTX was present in a concentration of 300 nM in 50 mM tris-HCl, pH 8.0; BAY 44-4400 was initially dissolved in pure DMSO (stock solutions between 0.004 and 10 μg/ml). The stock solutions were adjusted to the required concentration in the Na^+ HBS buffer. The maximum amount of the active substance BAY 44-4400 which could be dissolved at a final concentration of 0.1% DMSO was found by setting up serial dilutions in Na^+ HBS.
The data were analyzed using the Excel 98 table calculation programme. The results are derived from at least 2-4 reproduced experiments on in each case 4-8 transfected and un-transfected cells.

HC110-R [2] = assay: Ca2+ imaging of HEK-293 cells expressing HC110-R-Myc/His; format: cell-based, Haemonchus contortus; settings: stably expressing cells; 400 ng/ml added 6 min before 75 nM α-LTX
[3] = target: T1, human muscarinic M1 acetylcholine receptor (Homo sapiens, UniProt P11229); format: cell-based; settings: 400 ng/ml BAY44-4400
T1 construct: The full-length cDNA of a human muscarinic receptor 1 (huM1Rez); expressed in transfected cells; host or cells: HEK-293, transient (pEGFP-N3)
T1 sequence (P11229 1-460): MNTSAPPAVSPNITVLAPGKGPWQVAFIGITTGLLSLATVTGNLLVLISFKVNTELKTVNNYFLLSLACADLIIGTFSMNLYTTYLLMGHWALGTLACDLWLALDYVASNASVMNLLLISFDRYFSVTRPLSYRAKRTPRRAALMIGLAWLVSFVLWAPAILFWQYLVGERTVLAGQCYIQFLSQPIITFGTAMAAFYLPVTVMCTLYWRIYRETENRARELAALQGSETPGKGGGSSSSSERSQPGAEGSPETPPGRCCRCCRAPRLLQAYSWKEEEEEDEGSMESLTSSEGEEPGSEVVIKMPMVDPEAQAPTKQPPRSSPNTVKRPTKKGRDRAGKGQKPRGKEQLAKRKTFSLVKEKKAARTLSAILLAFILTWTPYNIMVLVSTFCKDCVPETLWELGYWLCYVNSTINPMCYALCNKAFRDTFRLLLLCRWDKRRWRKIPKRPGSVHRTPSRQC

[4] = 4 ng/ml added 6 min before 75 nM α-LTX

In the case of `CC(C)C[C@H]1C(=O)O[C@H](Cc2ccc(N3CCOCC3)cc2)C(=O)N(C)[C@@H](CC(C)C)C(=O)O[C@H](C)C(=O)N(C)[C@@H](CC(C)C)C(=O)O[C@H](Cc2ccc(N3CCOCC3)cc2)C(=O)N(C)[C@@H](CC(C)C)C(=O)O[C@H](C)C(=O)N1C` [BAY44-4400, cyclo(-D-Lac-L-MeLeu-D-p-morpholinyl-PhLac-L-MeLeu-)], the “first small α-LTX-induced increase in [Ca2+]i” value (HC110-R [1]; [4]) is reported as “disappeared”, the “α-LTX-induced increase in [Ca2+]i in presence of substance” value (shortened to “α-LTX-induced increase … of substance”) (HC110-R [1]; [4]) is reported as 44 ± 6.0 nM and the “change in [Ca2+]i after preincubation with substance alone” value (HC110-R [1]; 4 ng/ml or 400 ng/ml, 90 min preincubation, no α-LTX) is reported as “no change in [Ca^2+]i”. The “α-LTX-induced increase in [Ca2+]i after preincubation” value (HC110-R [1]; 4 ng/ml, 90 min preincubation, substance removed, then 75 nM α-LTX) was 95 ± 20.5 nM, the “plateau of [Ca2+]i after the peak” value (HC110-R [1]; 4 ng/ml, 90 min preincubation, then 75 nM α-LTX) was 23 ± 2.6 nM and the “change in [Ca2+]i, BAY44-4400 given with piperazine” value (HC110-R [1]; 400 ng/ml BAY44-4400 + 1 or 10 μM piperazine, untransfected and HC110-R-GFP-transfected cells) was “no change in [Ca^2+]i was detectable”. For the same compound, the “α-LTX-induced increase … of substance” value (HC110-R [1]; 400 ng/ml added 6 min before 75 nM α-LTX) was 49 ± 4.2 nM, the “plateau of [Ca2+]i above initial values after the peak” value (HC110-R [1]; 400 ng/ml added 6 min before 75 nM α-LTX, 8 min after peak) was 11 ± 1.4 nM and the “delay of the α-LTX-induced increase” value (HC110-R [1]; 400 ng/ml versus 4 ng/ml, 90 min preincubation) was 12 min. For the same compound, the “Ca2+ response to substance alone” value (HC110-R [1]; no α-LTX) was “does not influence the Ca^2+ concentration; also recorded: neither the very effective nematicide BAY44-4400 nor the virtually ineffective antipode PF1022-001 induces a Ca^2+ response”, the “Ca2+ response to substance alone” value (HC110-R [1]; no α-LTX, listed as BAY 44-4400) was “in no comparable way with a change in the intracellular Ca^2+ concentration” and the “Ca2+-mediated response to substance alone” value (HC110-R [1]; 100, 300 or 400 ng/ml and 1 or 10 μg/ml, 50 min, untransfected and HC110-R-GFP-transfected cells) was “At no concentration was a Ca^2+-mediated response detectable”. The “mode of action on α-LTX signalling” value (HC110-R [1]; HC110-R-transfected HEK-293 cells) was “acts as antagonist of α-LTX”, the “first small α-LTX-induced increase in [Ca2+]i” value (HC110-R [1]; incubation 6 minutes before 75 nM α-LTX) was “disappears” and the “reduction of second α-LTX-induced increase” value (HC110-R [1]; incubation 6 minutes before 75 nM α-LTX, 15 minutes after α-LTX) was 85%. For the same compound, the “first α-LTX-induced increase in Ca2+” value (HC110-R [1]; preincubated 60 minutes before 30 minutes FURA loading, 75 nM α-LTX) was “complete disappearance”, the “second α-LTX-induced increase in [Ca2+]i” value (HC110-R [1]; preincubated 60 minutes before 30 minutes FURA loading, 30 minutes after 75 nM α-LTX) was 70 nM and the “α-LTX-induced increase … of substance” value (HC110-R [2]) was “complete inhibition”. For the same compound, the “carbachol-induced increase in [Ca2+]i in presence of BAY44-4400” value [3] was 89 ± 5.5 nM.
